Data published in patent US6342261B1, “Method of preserving foods using noble gases” (American Air Liquide, priority 1992, dated 2002).
Values joined by “and” are separate entries in the source; they are usually repeats but may differ in a detail not shown here. Equal values may be shown once. Values belong to the compound of their own block, whether it stands above or below them.

Tests used:
[1] = tested on: Acetyl-CoA synthetase EC 6.2.1.1; experiment: Enzyme activity under gas: acetyl-CoA synthetase; assay type: biochemical
Experimental: (§1) Sealed cuvettes containing enzymes representative of and in fact important in food product degradation processes were thoroughly purged and filled with assay gases. Injection of gassed substrate solutions started the reactions, which were generally conducted under optimal conditions. These were monitored […] by scanning uv/vis spectrophotometry. All controls were conducted for oxygen, nitrogen and carbon dioxide. A range of temperatures and pressures were employed. An example protocol is appended. Results were expressed in real-time, and transformed to calculate yield and rate differences for the reaction. Over 50 exemplary enzymes were so assayed. Enzymes selected for examination from various products are assayed in precisely the same manner, but always in terms of relative activity in comparison with that product in air or another control gas or gas mixture.
(§2) The follwing Table summarizes the maximum inhibition of enzymes activity realized with various noble gases under various storage conditions.

Lipase EC 3.1.1.3 = experiment: Enzyme activity under gas: lipase; assay type: biochemical
Experimental: as §1, §2

[2] = tested on: Aspartate aminotransferase (EC 2.6.1.1); experiment: Enzyme activity under gas: aspartate aminotransferase; assay type: biochemical
Experimental: as §1, §2

[3] = target: Glucose oxidase EC 1.1.3.4 (Aspergillus niger, UniProt P13006); experiment: Enzyme activity under gas: glucose oxidase; assay type: biochemical
Experimental: as §1, §2

[4] = target: Gamma-glutamyl transpeptidase EC 2.3.2.2 (Homo sapiens, UniProt P19440); experiment: Enzyme activity under gas: gamma-glutamyl transpeptidase; assay type: biochemical
Experimental: as §1, §2

Tyrosinase EC 1.14.18.1 = experiment: Enzyme activity under gas: tyrosinase; assay type: biochemical; conditions: 25°, optimal reaction conditions, simple saturation of solution with gas
Experimental: as §1, §2
at 25° and optimal reaction conditions, simple saturation of solution with gas: […]

Aerobes = experiment: Total microorganisms from product trials: aerobes; assay type: cell-based
Experimental: (§3) Many different products were assayed under a wide variety of temperatures and pressures, packaging treatments, and post-packaging handling. In the general experiment, sterile pouches of impermeable film were filled with freshly-obtained food products under recommended handling regimes. Each was then purged thoroughly with the gas mixture to be tested. Then sealed, the pouch was further treated by cooking, cold storage, or other parameter, or else was not. The sealed pouch was stored at room, cold, or freezing temperature, and periodically sampled for microorganism counts (total, aerobic, anaerobic, Pseudomonas, Lactobacilli). It was also studied for observable deterioration and scored. Some samples were subjected to appropriate chemical analysis. Others were sampled for specific enzyme activities as above. All told, the average experiment consisted of replicate samples of product being assayed for microbial counts, microbial identifications, enyzme activities, chemical oxidation, discoloration, odor and/or taste changes, and final carbon dioxide and oxygen concentrations. Microbes and enzymes known to be important in the degradation of each individual product were selected for examination and scoring from the literature.

Molds = experiment: Total microorganisms from product trials: molds; assay type: cell-based
Experimental: as §3

Yeasts = experiment: Total microorganisms from product trials: yeasts; assay type: cell-based
Experimental: as §3

Yeasts and molds = experiment: Yeast and mold growth on bread and pasta under gases; assay type: cell-based
Experimental: as §3, with “concentrations.” for “concentrations. Microbes and enzymes known to be important in the degradation of each individual product were selected for examination and scoring from the literature.”

Phosphoglucose isomerase = Phosphoglucose isomerase (Homo sapiens, UniProt P06744); experiment: Enzyme activity under gas: phosphoglucose isomerase; assay type: biochemical
Experimental: as §1, §2

Anaerobes = experiment: Total microorganisms from product trials: anaerobes; assay type: cell-based
Experimental: as §3

[5] = tested on: Class V. Isomerases (EC 5); experiment: Enzyme activity under gas: Class V isomerases (enzyme not named); assay type: biochemical
Experimental: as §1, §2

[6] = Chemical oxidation reactions of food components under gases; conditions: even in the presence of oxygen; pigments, phenolics, ascorbic acid of the product section
Text: Other oxygenated species, such as carbon dioxide are reactively destructive.
That is, in accordance with the present invention, it has been discovered that certain gases can directly affect the oxidation rate of chemicals and not merely slow oxidation only as function of physical and inert displacement of oxygen. Generally, the present invention is effected by contacting the chemicals or chemical preparations during at least a protion of storage thereof to a noble gas, a mixture of noble gases or a gaseous mixture containing at least one noble gas.

Gamma-glutamyl transpeptidase EC 2.3.2.2, sequence (P19440 whole entry): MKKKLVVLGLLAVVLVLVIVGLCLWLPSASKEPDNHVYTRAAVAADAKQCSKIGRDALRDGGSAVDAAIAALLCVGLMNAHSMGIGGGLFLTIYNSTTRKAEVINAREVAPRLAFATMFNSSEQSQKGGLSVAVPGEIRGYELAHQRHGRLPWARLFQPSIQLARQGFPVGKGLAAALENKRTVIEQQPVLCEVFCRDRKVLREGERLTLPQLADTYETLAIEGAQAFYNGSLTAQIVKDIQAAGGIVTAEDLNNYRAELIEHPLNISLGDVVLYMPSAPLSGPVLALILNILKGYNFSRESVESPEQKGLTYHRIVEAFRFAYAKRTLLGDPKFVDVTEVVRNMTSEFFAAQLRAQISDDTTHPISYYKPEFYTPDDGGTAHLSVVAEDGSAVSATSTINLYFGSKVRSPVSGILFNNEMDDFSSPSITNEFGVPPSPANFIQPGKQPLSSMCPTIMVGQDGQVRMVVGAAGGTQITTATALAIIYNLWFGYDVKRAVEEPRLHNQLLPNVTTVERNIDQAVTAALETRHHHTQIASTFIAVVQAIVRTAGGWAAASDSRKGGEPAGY
Glucose oxidase EC 1.1.3.4, sequence (P13006 17-605): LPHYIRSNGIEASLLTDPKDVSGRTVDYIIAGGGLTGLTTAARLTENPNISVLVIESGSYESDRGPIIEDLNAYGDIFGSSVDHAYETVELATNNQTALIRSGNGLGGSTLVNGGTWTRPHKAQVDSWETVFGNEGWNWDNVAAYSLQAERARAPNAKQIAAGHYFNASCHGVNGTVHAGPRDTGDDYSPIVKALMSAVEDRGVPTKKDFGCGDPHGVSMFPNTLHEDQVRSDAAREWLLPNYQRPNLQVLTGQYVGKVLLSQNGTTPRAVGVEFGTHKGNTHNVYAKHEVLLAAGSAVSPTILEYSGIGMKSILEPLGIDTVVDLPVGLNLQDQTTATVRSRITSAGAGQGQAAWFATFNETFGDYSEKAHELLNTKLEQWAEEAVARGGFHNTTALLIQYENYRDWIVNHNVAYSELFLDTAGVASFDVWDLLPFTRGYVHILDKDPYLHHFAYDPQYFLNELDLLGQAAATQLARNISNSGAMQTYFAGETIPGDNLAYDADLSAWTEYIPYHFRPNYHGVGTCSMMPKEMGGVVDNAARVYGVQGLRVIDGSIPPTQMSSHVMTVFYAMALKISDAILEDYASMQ

Compound: [Kr] [Kr, krypton]
Result [1]: −16%
Result, With Lipase (Lipase EC 3.1.1.3): −25%
Result (inhibition), maximum inhibition of enzyme activity [2]: −82%
Result (inhibition), maximum inhibition of enzyme activity [3]: −92.7%
Result (inhibition), maximum inhibition of enzyme activity [4]: −8%
Result (inhibition vs air), maximum inhibition of enzyme activity (Tyrosinase EC 1.14.18.1): −73%

Result (inhibition vs air), maximum inhibition of enzyme activity (Tyrosinase EC 1.14.18.1): 0%
Compound: O=C=O [CO2, carbon dioxide, reference compound]
% Inhibition Compared to 100% Air (Aerobes; Carrots): 24%
% Inhibition Compared to 100% Air (Aerobes; Fish Fillets): 14%
% Inhibition Compared to 100% Air (Aerobes; Green Beans, Refrigerated): 26%
% Inhibition Compared to 100% Air (Aerobes; Green Beans, Room Temperature): 10%
% Inhibition Compared to 100% Air (Aerobes; Ground Beef): 9%
% Inhibition Compared to 100% Air (Aerobes; Lettuce): 9%
% Inhibition Compared to 100% Air (Aerobes; Mixed Salad (Chef Salad)): 2%
% Inhibition Compared to 100% Air (Aerobes; Shrimp): 4%
% Inhibition Compared to 100% Air (Aerobes; Steaks): 21%
% Inhibition Compared to 100% Air (Aerobes; Strawberries): 48%
% Inhibition Compared to 100% Air (Aerobes; Tomatoes): 92%
% Inhibition Compared to 100% Air (Molds; Carrots): 3%
% Inhibition Compared to 100% Air (Molds; Fish Fillets): 18%
% Inhibition Compared to 100% Air (Molds; Green Beans, Refrigerated): 2%
% Inhibition Compared to 100% Air (Molds; Green Beans, Room Temperature): 3%
% Inhibition Compared to 100% Air (Molds; Ground Beef): 2%
% Inhibition Compared to 100% Air (Molds; Lettuce): 2%
% Inhibition Compared to 100% Air (Molds; Mixed Salad (Chef Salad)): 4%
% Inhibition Compared to 100% Air (Molds; Shrimp): 2%
% Inhibition Compared to 100% Air (Molds; Smelt): 29%
% Inhibition Compared to 100% Air (Molds; Steaks): 17%
% Inhibition Compared to 100% Air (Molds; Strawberries): 100%
% Inhibition Compared to 100% Air (Molds; Tomatoes): 62%
% Inhibition Compared to 100% Air (Yeasts; Carrots): 35%
% Inhibition Compared to 100% Air (Yeasts; Fish Fillets): 36%
% Inhibition Compared to 100% Air (Yeasts; Green Beans, Refrigerated): 55%
% Inhibition Compared to 100% Air (Yeasts; Green Beans, Room Temperature): 19%
% Inhibition Compared to 100% Air (Yeasts; Ground Beef): 4%
% Inhibition Compared to 100% Air (Yeasts; Lettuce): 4%
% Inhibition Compared to 100% Air (Yeasts; Mixed Salad (Chef Salad)): 63%
% Inhibition Compared to 100% Air (Yeasts; Shrimp): 8%
% Inhibition Compared to 100% Air (Yeasts; Smelt): 0.8%
% Inhibition Compared to 100% Air (Yeasts; Steaks): 15%
% Inhibition Compared to 100% Air (Yeasts; Strawberries): 32%
% Inhibition Compared to 100% Air (Yeasts; Tomatoes): 80%
depression of yeasts and molds with respect to nitrogen or air (Yeasts and molds; Bread): may be superior
depression of yeasts and molds with respect to nitrogen or air (Yeasts and molds; Pasta): may be superior

Compound: [Xe] [Xe, xenon]
Result [1]: −18%
Result, With Lipase (Lipase EC 3.1.1.3): −25.6%
Result (inhibition), maximum inhibition of enzyme activity [2]: −17% (inhibition)
Result (inhibition), maximum inhibition of enzyme activity [3]: −91.6% (inhibition)
Result (inhibition), maximum inhibition of enzyme activity [4]: −7% (inhibition)
Result (Phosphoglucose isomerase): −61%

Compound: [Ne] [Ne, neon]
Result [1]: −15%
Result, With Lipase (Lipase EC 3.1.1.3): −15%
Result (inhibition), maximum inhibition of enzyme activity [2]: −12%
Result (inhibition), maximum inhibition of enzyme activity [3]: −61.7%
Result (inhibition), maximum inhibition of enzyme activity [4]: −3%
Result (inhibition vs air), maximum inhibition of enzyme activity (Tyrosinase EC 1.14.18.1): −46.7%
Result (Phosphoglucose isomerase): −45%

Compound: [Ar] [Ar, argon]
% Inhibition Compared to 100% Air (Aerobes; Carrots): 33%
% Inhibition Compared to 100% Air (Aerobes; Fish Fillets): 13%
% Inhibition Compared to 100% Air (Aerobes; Green Beans, Refrigerated): 11%
% Inhibition Compared to 100% Air (Aerobes; Green Beans, Room Temperature): 2%
% Inhibition Compared to 100% Air (Aerobes; Ground Beef): 0.4%
% Inhibition Compared to 100% Air (Aerobes; Lettuce): 0.4%
% Inhibition Compared to 100% Air (Aerobes; Mixed Salad (Chef Salad)): 12%
% Inhibition Compared to 100% Air (Aerobes; Shrimp): 1%
% Inhibition Compared to 100% Air (Aerobes; Steaks): 13%
% Inhibition Compared to 100% Air (Aerobes; Strawberries): 40%
% Inhibition Compared to 100% Air (Aerobes; Tomatoes): 96%
% Inhibition Compared to 100% CO2 (Anaerobes; Carrots): 9%
% Inhibition Compared to 100% CO2 (Anaerobes; Fish Fillets): 2%
% Inhibition Compared to 100% CO2 (Anaerobes; Green Beans, Refrigerated): 61%
% Inhibition Compared to 100% CO2 (Anaerobes; Ground Beef): 16%
% Inhibition Compared to 100% Air (Anaerobes; Lettuce): 16%
% Inhibition Compared to 100% CO2 (Anaerobes; Mixed Salad (Chef Salad)): 6% and 1%
% Inhibition Compared to 100% CO2 (Anaerobes; Shrimp): 4%
% Inhibition Compared to 100% CO2 (Anaerobes; Smelt): 30%
% Inhibition Compared to 100% CO2 (Anaerobes; Steaks): 6%
% Inhibition Compared to 100% CO2 (Anaerobes; Tomatoes): 22%
% Inhibition Compared to 100% Air (Molds; Carrots): 20%
% Inhibition Compared to 100% Air (Molds; Fish Fillets): 15%
% Inhibition Compared to 100% Air (Molds; Green Beans, Refrigerated): 25%
% Inhibition Compared to 100% Air (Molds; Green Beans, Room Temperature): 15%
% Inhibition Compared to 100% Air (Molds; Ground Beef): 4%
% Inhibition Compared to 100% Air (Molds; Lettuce): 4%
% Inhibition Compared to 100% Air (Molds; Mixed Salad (Chef Salad)): 2%
% Inhibition Compared to 100% Air (Molds; Shrimp): 5%
% Inhibition Compared to 100% Air (Molds; Smelt): 22%
% Inhibition Compared to 100% Air (Molds; Steaks): 27%
% Inhibition Compared to 100% Air (Molds; Strawberries): 80%
% Inhibition Compared to 100% Air (Molds; Tomatoes): 51%
Result [1]: −75%
Result, With Lipase (Lipase EC 3.1.1.3): −18%
inhibition (up to) (Lipase EC 3.1.1.3): up to −20%
Result (inhibition), maximum inhibition of enzyme activity [2]: −17%
% Inhibition Compared to 100% Air (Yeasts; Carrots): 49%
% Inhibition Compared to 100% Air (Yeasts; Fish Fillets): 35%
% Inhibition Compared to 100% Air (Yeasts; Green Beans, Refrigerated): 20%
% Inhibition Compared to 100% Air (Yeasts; Green Beans, Room Temperature): 10%
% Inhibition Compared to 100% Air (Yeasts; Ground Beef): 28%
% Inhibition Compared to 100% Air (Yeasts; Lettuce): 28%
% Inhibition Compared to 100% Air (Yeasts; Mixed Salad (Chef Salad)): 47%
% Inhibition Compared to 100% Air (Yeasts; Shrimp): 2%
% Inhibition Compared to 100% Air (Yeasts; Smelt): 17%
% Inhibition Compared to 100% Air (Yeasts; Steaks): 16%
% Inhibition Compared to 100% Air (Yeasts; Strawberries): 12%
% Inhibition Compared to 100% Air (Yeasts; Tomatoes): 38%
Result (inhibition), maximum inhibition of enzyme activity [3]: −85.8%
Result (inhibition), maximum inhibition of enzyme activity [4]: −5%
Result, Class V isomerases [5]: −37%
Result (inhibition vs air), maximum inhibition of enzyme activity (Tyrosinase EC 1.14.18.1): −60%

Compound: N#N [Gas N2, nitrogen, reference compound]
Result (inhibition vs air), maximum inhibition of enzyme activity (Tyrosinase EC 1.14.18.1): 0%
inhibition of chemical oxidation, order of effect of the gases [6]: has no such ability
